In patent publication US8455475B2 (Gruenenthal GmbH, priority 2009, dated 2013):

Experiments:
[1] = molecular target: T1, human B1R (bradykinin receptor 1) (Homo sapiens, UniProt P46663); experiment: FLIPR Ca2+ assay (Fluo-4) on CHO K1 cells stably transfected with the human B1R gene (hB1R cells): % inhibition at 10 μM / IC50, agonist Lys-Des-Arg9-bradykinin; type: cell-based; conditions: for inhibition at 10 µM: CHO-K1, human B1R
T1 construct: expressed in transfected cells; host or cells: CHO K1 cells
T1 sequence (P46663 1-353): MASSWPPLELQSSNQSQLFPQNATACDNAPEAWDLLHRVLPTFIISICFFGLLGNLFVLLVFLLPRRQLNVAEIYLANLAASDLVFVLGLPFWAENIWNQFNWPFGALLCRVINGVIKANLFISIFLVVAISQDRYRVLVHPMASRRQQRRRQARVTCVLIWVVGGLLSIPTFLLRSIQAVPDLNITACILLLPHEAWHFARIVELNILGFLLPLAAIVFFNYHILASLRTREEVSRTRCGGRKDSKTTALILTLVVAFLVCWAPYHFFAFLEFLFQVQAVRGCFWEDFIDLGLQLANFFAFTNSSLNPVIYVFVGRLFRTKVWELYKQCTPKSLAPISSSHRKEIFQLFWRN
Procedure, shortened: (§1)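 Antagonism is measured as the drop in peak Fluo-4 Ca2+ signal when the EC80 agonist follows 10–20 min compound exposure. The single-point screen uses 10 μM; IC50 uses several concentrations. Values are given as % of maximal achievable inhibition.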

[2] = molecular target: T2, rat B1R (bradykinin receptor 1) (Rattus norvegicus, UniProt P97583); experiment: FLIPR Ca2+ assay (Fluo-4) on CHO K1 cells stably transfected with the B1R gene of the rat (rB1R cells): % inhibition at 10 μM / IC50, agonist Des-Arg9-bradykinin; type: cell-based; conditions: for inhibition at 10 µM: CHO-K1, rat B1R
T2 construct: expressed in transfected cells; host or cells: CHO K1 cells
T2 sequence (P97583 1-337): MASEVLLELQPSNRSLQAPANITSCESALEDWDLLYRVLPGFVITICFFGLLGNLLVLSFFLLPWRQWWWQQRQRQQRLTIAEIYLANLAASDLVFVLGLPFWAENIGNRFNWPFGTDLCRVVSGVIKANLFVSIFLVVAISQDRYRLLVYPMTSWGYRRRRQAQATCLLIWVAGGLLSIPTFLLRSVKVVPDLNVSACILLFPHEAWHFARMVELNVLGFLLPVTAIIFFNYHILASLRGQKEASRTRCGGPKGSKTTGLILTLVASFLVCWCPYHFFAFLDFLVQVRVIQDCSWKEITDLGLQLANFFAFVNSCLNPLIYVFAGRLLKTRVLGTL
Procedure, shortened: as §1

Row | SMILES | inhibition at 10 µM [1] [%] | inhibition at 10 µM [2] [%] | % Inhibition (human B1R) at 10 μM ([1]; human B1R) [%] | % Inhibition (rat B1R) at 10 μM ([2]; rat B1R) [%]
1 | O=C(NC1CCc2ccc(C(=O)N3CCC4(CCN(C(=O)C5CC5)CC4)C3)cc21)c1ccccc1Cl (stereo not drawn) [IND_CC-573, 2-Chloro-N-[6-[8-(cyclopropanecarbonyl)-2,8-diazaspiro[4.5]decane-2-carbonyl]-2,3-dihydro-1H-inden-1-yl]-benzamide] | 43 | 100 |  | 
2 | CC(C)(C)CC(=O)N1CCC2(CC1)CCN(C(=O)c1ccc3c(c1)C(NC(=O)c1ccccc1Cl)CC3)C2 (stereo not drawn) [IND_CC-574, 2-Chloro-N-[6-[8-(3,3-dimethyl-butanoyl)-2,8-diazaspiro[4.5]decane-2-carbonyl]-2,3-dihydro-1H-inden-1-yl]-benzamide] | 14 | 101 |  | 
3 | O=C(NC1CCc2ccc(C(=O)N3CCC4(CCN(C(=O)Cc5ccc(Cl)cc5)CC4)C3)cc21)c1ccccc1Cl (stereo not drawn) [IND_CC-577, 2-Chloro-N-[6-[8-[2-(4-chlorophenyl)-acetyl]-2,8-diazaspiro[4.5]decane-2-carbonyl]-2,3-dihydro-1H-inden-1-yl]-benzamide] | 21 | 96 |  | 
4 | COc1cc(C)c(S(=O)(=O)NC2CCc3ccc(C(=O)N4CCC5(CC4)CCN(c4ccncc4)CC5)cc32)c(C)c1 (stereo not drawn) [Ind_CC-001, 4-methoxy-2,6-dimethyl-N-[6-(9-pyridin-4-yl-3,9-diazaspiro[5.5]undecane-3-carbonyl)-2,3-dihydro-1H-inden-1-yl]-benzenesulfonic acid amide] | 99 | 98 |  | 
5 | O=C(NC1CCc2ccc(C(=O)N3CCC4(CC3)CCN(c3ccncc3)CC4)cc21)c1ccccn1 (stereo not drawn) [Ind_CC-002, N-[6-(9-pyridin-4-yl-3,9-diazaspiro[5.5]undecane-3-carbonyl)-2,3-dihydro-1H-inden-1-yl]-pyridine-2-carboxylic acid amide] | 97 | 85 |  | 
6 | O=C(NC1CCc2ccc(C(=O)N3CCC4(CC3)CCN(c3ccncc3)CC4)cc21)c1ccccc1C(F)(F)F (stereo not drawn) [Ind_CC-003, N-[6-(9-pyridin-4-yl-3,9-diazaspiro[5.5]undecane-3-carbonyl)-2,3-dihydro-1H-inden-1-yl]-2-(trifluoromethyl)-benzamide] | 99 | 101 |  | 
7 | O=C(NC1CCc2ccc(C(=O)N3CCC4(CC3)CCN(c3ccncc3)CC4)cc21)c1sccc1Cl (stereo not drawn) [Ind_CC-004, 3-chloro-N-[6-(9-pyridin-4-yl-3,9-diazaspiro[5.5]undecane-3-carbonyl)-2,3-dihydro-1H-inden-1-yl]-thiophene-2-carboxylic acid amide] | 99 | 98 |  | 
8 | O=C(NC1CCc2ccc(C(=O)N3CCC4(CC3)CCN(c3ccncc3)CC4)cc21)c1ccc(Cl)s1 (stereo not drawn) [Ind_CC-005, 5-chloro-N-[6-(9-pyridin-4-yl-3,9-diazaspiro[5.5]undecane-3-carbonyl)-2,3-dihydro-1H-inden-1-yl]-thiophene-2-carboxylic acid amide] | 97 | 98 |  | 
9 | O=C(NC1CCc2ccc(C(=O)N3CCC4(CC3)CCN(c3ccncc3)CC4)cc21)c1ccc(Cl)cc1Cl (stereo not drawn) [Ind_CC-006, 2,4-dichloro-N-[6-(9-pyridin-4-yl-3,9-diazaspiro[5.5]undecane-3-carbonyl)-2,3-dihydro-1H-inden-1-yl]-benzamide] | 98 | 98 |  | 
10 | O=C(Cc1ccccc1Cl)NC1CCc2ccc(C(=O)N3CCC4(CC3)CCN(c3ccncc3)CC4)cc21 (stereo not drawn) [Ind_CC-007, 2-(2-chlorophenyl)-N-[6-(9-pyridin-4-yl-3,9-diazaspiro[5.5]undecane-3-carbonyl)-2,3-dihydro-1H-inden-1-yl]-acetamide] | 99 | 102 |  | 
11 | O=C(/C=C/c1ccccc1Cl)NC1CCc2ccc(C(=O)N3CCC4(CC3)CCN(c3ccncc3)CC4)cc21 (stereo not drawn) [Ind_CC-008, (E)-3-(2-chlorophenyl)-N-[6-(9-pyridin-4-yl-3,9-diazaspiro[5.5]undecane-3-carbonyl)-2,3-dihydro-1H-inden-1-yl]-acrylamide] | 72 | 74 |  | 
12 | O=C(NC1CCc2ccc(C(=O)N3CCC4(CC3)CCN(c3ccncc3)CC4)cc21)C(c1ccccc1)c1ccccc1Cl (stereo not drawn) [Ind_CC-009, 2-(2-chlorophenyl)-2-phenyl-N-[6-(9-pyridin-4-yl-3,9-diazaspiro[5.5]undecane-3-carbonyl)-2,3-dihydro-1H-inden-1-yl]-acetamide] | 87 | 99 |  | 
13 | O=C(c1ccc2c(c1)C(NS(=O)(=O)c1ccccc1Cl)CC2)N1CCC2(CC1)CCN(c1ccncc1)CC2 (stereo not drawn) [Ind_CC-010, 2-chloro-N-[6-(9-pyridin-4-yl-3,9-diazaspiro[5.5]undecane-3-carbonyl)-2,3-dihydro-1H-inden-1-yl]-benzenesulfonic acid amide] | 97 | 100 |  | 
14 | O=C(Nc1ccc(Cl)c(Cl)c1)NC1CCc2ccc(C(=O)N3CCC4(CC3)CCN(c3ccncc3)CC4)cc21 (stereo not drawn) [Ind_CC-011] |  |  | 36 | 76
15 | O=C(NCc1ccccc1Cl)NC1CCc2ccc(C(=O)N3CCC4(CC3)CCN(c3ccncc3)CC4)cc21 (stereo not drawn) [Ind_CC-012, 1-[(2-chlorophenyl)-methyl]-3-[6-(9-pyridin-4-yl-3,9-diazaspiro[5.5]undecane-3-carbonyl)-2,3-dihydro-1H-inden-1-yl]-urea] | 100 | 100 |  | 
16 | COc1cc(C)c(C(=O)NC2CCc3ccc(C(=O)N4CCC5(CC4)CCN(c4ccncc4)CC5)cc32)c(C)c1 (stereo not drawn) [Ind_CC-013, 4-methoxy-2,6-dimethyl-N-[6-(9-pyridin-4-yl-3,9-diazaspiro[5.5]undecane-3-carbonyl)-2,3-dihydro-1H-inden-1-yl]-benzamide] | 68 | 71 |  | 
17 | CN(C(=O)c1ccccn1)C1CCc2ccc(C(=O)N3CCC4(CC3)CCN(c3ccncc3)CC4)cc21 (stereo not drawn) [Ind_CC-014, N-methyl-N-[6-(9-pyridin-4-yl-3,9-diazaspiro[5.5]undecane-3-carbonyl)-2,3-dihydro-1H-inden-1-yl]-pyridine-2-carboxylic acid amide] | 93 | 101 |  | 
18 | CN(C(=O)c1ccccc1C(F)(F)F)C1CCc2ccc(C(=O)N3CCC4(CC3)CCN(c3ccncc3)CC4)cc21 (stereo not drawn) [Ind_CC-015, N-methyl-N-[6-(9-pyridin-4-yl-3,9-diazaspiro[5.5]undecane-3-carbonyl)-2,3-dihydro-1H-inden-1-yl]-2-(trifluoromethyl)-benzamide] | 100 | 101 |  | 
19 | CN(C(=O)c1sccc1Cl)C1CCc2ccc(C(=O)N3CCC4(CC3)CCN(c3ccncc3)CC4)cc21 (stereo not drawn) [Ind_CC-016, 3-chloro-N-methyl-N-[6-(9-pyridin-4-yl-3,9-diazaspiro[5.5]undecane-3-carbonyl)-2,3-dihydro-1H-inden-1-yl]-thiophene-2-carboxylic acid amide] | 100 | 102 |  | 
20 | CN(C(=O)c1ccc(Cl)s1)C1CCc2ccc(C(=O)N3CCC4(CC3)CCN(c3ccncc3)CC4)cc21 (stereo not drawn) [Ind_CC-017, 5-chloro-N-methyl-N-[6-(9-pyridin-4-yl-3,9-diazaspiro[5.5]undecane-3-carbonyl)-2,3-dihydro-1H-inden-1-yl]-thiophene-2-carboxylic acid amide] | 99 | 102 |  | 
21 | CN(C(=O)c1ccc(Cl)cc1Cl)C1CCc2ccc(C(=O)N3CCC4(CC3)CCN(c3ccncc3)CC4)cc21 (stereo not drawn) [Ind_CC-018, 2,4-dichloro-N-methyl-N-[6-(9-pyridin-4-yl-3,9-diazaspiro[5.5]undecane-3-carbonyl)-2,3-dihydro-1H-inden-1-yl]-benzamide] | 98 | 98 |  | 
22 | CN(C(=O)Cc1ccccc1Cl)C1CCc2ccc(C(=O)N3CCC4(CC3)CCN(c3ccncc3)CC4)cc21 (stereo not drawn) [Ind_CC-019, 2-(2-chlorophenyl)-N-methyl-N-[6-(9-pyridin-4-yl-3,9-diazaspiro[5.5]undecane-3-carbonyl)-2,3-dihydro-1H-inden-1-yl]-acetamide] | 99 | 95 |  | 
23 | CN(C(=O)/C=C/c1ccccc1Cl)C1CCc2ccc(C(=O)N3CCC4(CC3)CCN(c3ccncc3)CC4)cc21 (stereo not drawn) [Ind_CC-020, (E)-3-(2-chlorophenyl)-N-methyl-N-[6-(9-pyridin-4-yl-3,9-diazaspiro[5.5]undecane-3-carbonyl)-2,3-dihydro-1H-inden-1-yl]-acrylamide] | 89 | 88 |  | 
24 | CN(C(=O)C(c1ccccc1)c1ccccc1Cl)C1CCc2ccc(C(=O)N3CCC4(CC3)CCN(c3ccncc3)CC4)cc21 (stereo not drawn) [Ind_CC-021, 2-(2-chlorophenyl)-N-methyl-2-phenyl-N-[6-(9-pyridin-4-yl-3,9-diazaspiro[5.5]undecane-3-carbonyl)-2,3-dihydro-1H-inden-1-yl]-acetamide] | 94 | 96 |  | 
